# Laboratory results published in DBAASP.
# Several values for one entry are separate records, joined by “and”; a condition that tells them apart may be missing. Equal entries are not always repeated.
# Key:
# Assay in all cases: ≥ marks a high value that may be exact or a test limit, other limits are often not marked, values filed in µg/mL are converted to µM
# [1] = test system: Fusarium oxysporum f. sp. lycopersici ATCC 201829
# [2] = test system: Saccharomyces cerevisiae FY1679
# [3] = test system: Penicillium expansum EPS 26
# [4] = test system: Rhizopus stolonifer CECT 2344
# [5] = test system: Penicillium digitatum PHI-26
# [6] = test system: Pseudomonas syringae EPS 94
# [7] = test system: Escherichia coli DH5alpha
# [8] = test system: Xanthomonas vesicatoria 2133-2
# [9] = test system: Erwinia amylovora PMV 6076
# [10] = test system: Aspergillus niger CECT 2694
# [11] = test system: Listeria monocytogenes ATCC 15313
# [12] = test system: Salmonella enterica subsp. enterica serovar Enteritidis ATCC 13076
# [13] = test system: Staphylococcus aureus ATCC 12493
# [14] = test system: Klebsiella pneumoniae ATCC 700603
# [15] = test system: Escherichia coli NCTC 10418
# [16] = test system: Candida albicans ATCC 10231
# [17] = test system: Bacillus cereus ATCC 11778
# [18] = test system: Pseudomonas aeruginosa ATCC 27853
# [19] = test system: Escherichia coli ATCC 25922
# [20] = test system: Bacillus subtilis ATCC 23857
# [21] = test system: Staphylococcus aureus ATCC 25923
# [22] = test system: Enterococcus faecalis NCTC 12697
# [23] = test system: Enterococcus faecalis ATCC 29212
# [24] = test system: Candida albicans NCTC 1467
# Escherichia coli = test system: Escherichia coli
# [25] = test system: Staphylococcus aureus NCTC 10788
# [26] = test system: Escherichia coli ATCC 11775
# [27] = test system: Escherichia coli ATCC 35218
# [28] = test system: Salmonella enterica subsp. enterica serovar Typhi Vi+
# [29] = test system: Salmonella enterica subsp. enterica serovar Typhimurium ATCC 14028
# [30] = test system: Staphylococcus aureus SR1550
# [31] = test system: Staphylococcus aureus ATCC 6538P
# [32] = test system: Escherichia coli K-12 594
# Salmonella typhimurium = test system: Salmonella typhimurium
# Saccharomyces cerevisiae = test system: Saccharomyces cerevisiae
# [33] = test system: Aspergillus flavus KCTC 9471
# Pseudomonas aeruginosa = test system: Pseudomonas aeruginosa
# Proteus vulgaris = test system: Proteus vulgaris
# Botrytis cinerea = test system: Botrytis cinerea
# [34] = test system: Candida albicans KCTC 7270
# [35] = test system: Aspergillus fumigatus KCTC 6145
# Staphylococcus aureus = test system: Staphylococcus aureus
# Trichosporon beigelii = test system: Trichosporon beigelii
# Fusarium verticillioides = test system: Fusarium verticillioides
# [36] = test system: Escherichia coli O157:H7 ATCC 43895
# Bacillus subtilis = test system: Bacillus subtilis
# [37] = test system: Staphylococcus epidermidis
# [38] = test system: Listeria monocytogenes KCTC 3710
# [39] = test system: Candida albicans NCTC 3179
# [40] = test system: Listeria monocytogenes ATCC 19114
# Bacillus cereus AS1.1846 = test system: Bacillus cereus AS1.1846
smiles,measurement,setting,value
CC[C@H](C)[C@H](NC(=O)[C@H](CCCCN)NC(=O)[C@H](CCCCN)NC(=O)[C@H](Cc1ccccc1)NC(=O)[C@H](CC(C)C)NC(=O)[C@H](CCCCN)NC(=O)[C@@H](N)CCCCN)C(=O)N[C@@H](CC(C)C)C(=O)N[C@@H](CCCCN)C(=O)N[C@H](C(=O)N[C@@H](CC(C)C)C(N)=O)C(C)C [KKLFKKILKVL],MIC,[1],0.849 µM
same,MIC,[2],16 µM
same,MIC,[3],13.7 µM
same,MIC,[4],8.66 µM
same,MIC,[5],4 µM
same,MIC,[6],3.16 µM
same,MIC,[7],4 µM
same,MIC,[8],13.4 µM
same,MIC,[9],5.92 µM
same,MIC,[10],6.12 µM
CC[C@H](C)[C@H](NC(=O)[C@H](CCCCN)NC(=O)[C@H](CCCCN)NC(=O)[C@H](C)NC(=O)[C@@H](NC(=O)[C@H](C)NC(=O)[C@H](CC(C)C)NC(=O)[C@H](CC(C)C)NC(=O)[C@H](C)NC(=O)[C@H](CCCCN)NC(=O)[C@H](CC(C)C)NC(=O)[C@H](CC(N)=O)NC(=O)[C@@H](N)CC(C)C)C(C)C)C(=O)N[C@@H](CC(C)C)C(N)=O [LNLKALLAVAKKIL],MIC,[11],4 µM
same,MIC,[12],4 µM
same,MIC,[13],4 µM
same,MIC,[14],8 µM
same,MIC,[15],4 µM
same,MIC,[16],8 µM
same,MIC,[17],4 µM and 8 µM
same,MIC,[18],8 µM and 16 µM
same,MIC,[19],4 µM and 8 µM
same,MIC,[20],4 µM
same,MIC,[21],4 µM
same,MIC,[22],8 µM
same,MIC,[23],≥ 32 µM
same,MIC,[24],4 µM
same,MIC,Escherichia coli,4 µM
same,MIC,[25],2 µM
CC[C@H](C)[C@H](NC(=O)[C@@H]1CCCN1C(=O)[C@H](CCCN=C(N)N)NC(=O)[C@@H]1CCCN1C(=O)[C@H](Cc1cnc[nH]1)NC(=O)[C@@H]1CCCN1C(=O)[C@@H]1CCCN1C(=O)[C@@H]1CCCN1C(=O)[C@H](CCCN=C(N)N)NC(=O)[C@@H]1CCCN1C(=O)[C@@H]1CCCN1C(=O)[C@H](Cc1ccc(O)cc1)NC(=O)[C@@H]1CCCN1C(=O)[C@H](CCCN=C(N)N)NC(=O)[C@@H]1CCCN1C(=O)[C@H](CCCCN)NC(=O)CN)C(=O)N[C@@H](CCCN=C(N)N)C(=O)N[C@H](C(=O)O)C(C)C [GKPRPYPPRPPPHPRPIRV],MIC,[26],0.3 µM
same,MIC,[27],0.2 µM
same,MIC,[19],0.3 µM
same,MIC,[28],0.6 µM
same,MIC,[29],0.6 µM
CC(C)C[C@H](NC(=O)[C@H](CC(C)C)NC(=O)[C@H](CC(C)C)NC(=O)[C@H](CC(C)C)NC(=O)[C@H](CC(C)C)NC(=O)[C@@H](N)CCCCN)C(=O)N[C@@H](CCCCN)C(N)=O [KLLLLLK],MIC,[30],≥ 41.7 µM
same,MIC,[31],19 µM
same,MIC,[32],29.8 µM
CC[C@H](C)[C@H](NC(=O)[C@H](CCCCN)NC(=O)[C@H](CO)NC(=O)[C@H](Cc1ccccc1)NC(=O)[C@H](CC(C)C)NC(=O)[C@H](CCCCN)NC(=O)[C@H](CCC(=O)O)NC(=O)[C@H](CC(C)C)NC(=O)[C@H](CCCN=C(N)N)NC(=O)[C@H](CCCCN)NC(=O)[C@H](Cc1ccccc1)NC(=O)[C@@H](NC(=O)[C@H](CCCCN)NC(=O)[C@H](CCCCN)NC(=O)[C@H](C)N)C(C)C)C(=O)N[C@@H](CCC(N)=O)C(=O)N[C@@H](CC(N)=O)C(=O)N[C@@H](Cc1c[nH]c2ccccc12)C(=O)N[C@@H](CCCCN)C(N)=O [AKKVFKRLEKLFSKIQNWK],MIC,Salmonella typhimurium,0.39 µM
same,MIC,Saccharomyces cerevisiae,25 µM
same,MIC,[33],≥ 50 µM
same,MIC,Pseudomonas aeruginosa,3.13 µM
same,MIC,Proteus vulgaris,3.13 µM
same,MIC,Botrytis cinerea,6.25 µM
same,MIC,[34],25 µM
same,MIC,[35],≥ 50 µM
same,MIC,Staphylococcus aureus,3.13 µM
same,MIC,Trichosporon beigelii,1.56 µM
same,MIC,Fusarium verticillioides,12.5 µM
same,MIC,[36],6.25 µM
same,MIC,Bacillus subtilis,1.56 µM
same,MIC,[37],3.13 µM
same,MIC,Escherichia coli,0.78 µM
same,MIC,[38],0.78 µM
CC[C@H](C)[C@H](NC(=O)[C@H](CCCCN)NC(=O)[C@@H](NC(=O)[C@@H](NC(=O)[C@H](CO)NC(=O)[C@H](CC(=O)O)NC(=O)[C@@H](NC(=O)[C@H](CC(N)=O)NC(=O)[C@@H](N)CC(=O)O)[C@@H](C)O)C(C)C)C(C)C)C(=O)N[C@@H](CCC(N)=O)C(=O)N[C@@H](CO)C(=O)N[C@@H](Cc1c[nH]c2ccccc12)C(=O)N[C@@H](Cc1ccccc1)C(=O)N[C@@H](CCCN=C(N)N)C(=O)N[C@@H](CCSC)C(=O)N[C@@H](C)C(=O)N[C@H](C(=O)N[C@@H](C)C(=O)N[C@@H](CCCN=C(N)N)C(=O)N[C@@H](CCCCN)C(=O)N[C@@H](CO)C(=O)N[C@@H](Cc1ccc(O)cc1)C(=O)N[C@@H](CC(C)C)C(=O)O)[C@@H](C)O [DNTDSVVKIQSWFRMATARKSYL],MIC,[39],25.8 µM
same,MIC,[19],1.25 µM
same,MIC,[21],26.5 µM
CC(C)[C@H](N)C(=O)N[C@@H](CO)C(=O)NCC(=O)N1CCC[C@H]1C(=O)N[C@@H](C)C(=O)NCC(=O)N1CCC[C@H]1C(=O)N1CCC[C@H]1C(=O)NCC(=O)N[C@H](C(=O)N[C@@H](Cc1cnc[nH]1)C(=O)O)[C@@H](C)O [VSGPAGPPGTH],MIC,[40],16.4 µM
same,MIC,Bacillus cereus AS1.1846,16.4 µM
